These results are taken from patent publication US20230151034A1 (COCRYSTAL PHARMA, INC., priority 2020, published 2023).

Where two headings read alike, the source gives them in different places. Where a SMILES comes first, the peptide text is derived from it. [ ]: non-standard residue; d: D form. The star is where a group is joined. ξ: configuration not given here. ξαMeE = CC(N)(CCC(=O)O)C(=O)O; Nonanoyl = CCCCCCCCC(=O)* Some results are limits rather than exact numbers.

The target in assay [1] is Norwalk GGI.1 Norovirus protease (Norovirus, UniProt Q83883). In words: Noro-Norwalk FRET protease assay (Norwalk GGI.1). The class given is biochemical, Norwalk virus. To be noted: FRET protease assay, read-out: Norwalk GGI.1 IC50. As to the method:
Viral protease assays: The antiviral activities of inhibitors were determined by FRET (Fluorescence Resonance Energy Transfer) assay. Purified viral protease was incubated with the protease substrate peptide (Edans-DFHLQ/GP-Dabcyl) and inhibitor, and IC50 values were subsequently determined by the fluorescence signals.
The Noro-Norwalk FRET protease assay was performed in 50 mM HEPES-Na pH 8, 50 mM NaCl, 0.4 mM EDTA, 4% glycerol, and 6 mM DTT. A self-quenching peptide substrate [5-FAM]-[…]-[TAMRA] was custom synthesized by Anaspec. Compounds were diluted in 3-fold serial dilutions to final concentrations of 200 μM to 10.2 nM. Noro protease was added to a final concentration of 1-7 μM, depending on the enzyme activity level, and the peptide substrate was added to a final concentration of 10 μM. The assay was incubated 90 minutes at 37° C. and read in a Perkin Elmer Envision with excitation at 473 nm and emission measurement at 519 nm.

The target of assay [2] is HuNV GGII.4 Norovirus protease (Norovirus GII.4 (human norovirus genogroup II genotype 4), UniProt P54634). In words: Norovirus protease FRET assay (HuNV GGII.4). The class given is biochemical. To be noted: FRET protease assay, read-out: HuNV GGII.4 IC50.
For the next assay, the target named is SARS2 protease (Severe acute respiratory syndrome coronavirus 2, UniProt P0DTD1). In words: SARS-CoV-2 protease inhibition assay (SARS2 FRET protease assay). The class given is biochemical. To be noted: Table E; SARS-CoV-2 protease inhibition; read-out: IC50. The method in brief: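 SARS-CoV-2 protease (25 nM) was incubated for 30 min at 30 °C with 1.3 μM quenched 5-FAM/TAMRA peptide substrate and compound (3-fold dilutions, 20 μM–1.0 nM). The buffer was 20 mM HEPES-Na pH 7, 120 mM NaCl, 0.4 mM EDTA, 0.01% Triton, 5% glycerol and 4 mM DTT. Fluorescence was read at ex 473 and em 519 nm, and IC50 was derived.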

HuNV GGII.4 Norovirus protease, sequence (P54634 1009-1189): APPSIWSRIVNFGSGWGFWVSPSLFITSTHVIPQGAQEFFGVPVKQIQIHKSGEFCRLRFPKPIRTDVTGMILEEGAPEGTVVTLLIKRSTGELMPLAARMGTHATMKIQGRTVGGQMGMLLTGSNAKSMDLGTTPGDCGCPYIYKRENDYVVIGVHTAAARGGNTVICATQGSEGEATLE
Norwalk GGI.1 Norovirus protease, sequence (Q83883 1101-1281): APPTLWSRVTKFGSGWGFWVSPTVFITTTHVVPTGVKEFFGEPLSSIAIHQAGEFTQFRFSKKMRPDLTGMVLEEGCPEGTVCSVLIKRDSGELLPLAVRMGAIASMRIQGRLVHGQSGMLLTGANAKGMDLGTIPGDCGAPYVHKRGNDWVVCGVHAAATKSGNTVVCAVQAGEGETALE

Consider `CCOCCN(C)C(=O)CC[C@@H](C=O)NC(=O)[C@H](CC1CCCCC1)NC(=O)OCc1cccc(Cl)c1` [Compound A10, 3-chlorobenzyl ((S)-3-cyclohexyl-1-(((S)-5-((2-ethoxyethyl)(methyl)amino)-1,5-dioxopentan-2-yl)amino)-1-oxopropan-2-yl)carbamate], for which the IC50 in assay [1] (Table C) was found to be 3.6 µM; in assay [2] (Table C), 16.9 µM; at SARS2 protease it was 0.98 µM.

Take `CCOP(=O)(OCC)C(O)[C@H](CCC(=O)N(C)c1ccccc1)NC(=O)[C@H](CC1CCCCC1)NC(=O)OCc1cccc(Cl)c1` (stereo partly drawn) [Compound A14, 3-Chlorobenzyl ((2S)-3-cyclohexyl-1-(((2S)-1-(diethoxyphosphoryl)-1-hydroxy-5-(methyl (phenyl)amino)-5-oxopentan-2-yl)amino)-1-oxopropan-2-yl) carbamate]: the figures for the concentration for half-maximal inhibition (IC50) (in assay [1] (Table C); in assay [2] (Table C); at SARS2 protease) were 50.9 µM, 70.1 µM and over 200 µM, respectively.

As for `CCOP(=O)(OCC)C(O)[C@H](CCC(=O)N(C)CCNS(=O)(=O)CC)NC(=O)[C@H](CC1CCCCC1)NC(=O)OCc1cccc(Cl)c1` (stereo partly drawn) [Compound A22], the results for the IC50 (in assay [1] (Table C); in assay [2] (Table C); at SARS2 protease) were 143 µM, over 200 µM and 2.3 µM, respectively.

With `CON(C)C(=O)[C@H](CCC(=O)N1CCCC(c2ccccc2)C1)NC(=O)[C@H](CC1CCCCC1)NC(=O)OCc1cccc(Cl)c1` (stereo in doubt) [Compound A43, 3-chlorobenzyl ((2S)-3-cyclohexyl-1-(((2S)-1-(methoxy(methyl)amino)-1,5-dioxo-5-(3-phenylpiperidin-1-yl)pentan-2-yl)amino)-1-oxopropan-2-yl)carbamate], the IC50 in assay [1] (Table C) is 135 µM; in assay [2] (Table C) it was over 200 µM; on SARS2 protease, 185 µM.

With `CON(C)C(=O)C1CC(C(=O)N(C)C)CCCCCC(Cc2ccccc2)OC(=O)N[C@@H](CC(C)C)C(=O)N1` (stereo in doubt) [Compound B43, (4S,7S)-15-benzyl-4-isobutyl-N7-methoxy-N7,N9,N9-trimethyl-2,5-dioxo-1-oxa-3,6-diazacyclopentadecane-7,9-dicarboxamide], the concentration for half-maximal inhibition (IC50) in assay [1] (Table D) was 105 µM; in assay [2] (Table D), 105 µM; on SARS2 protease, over 200 µM.

Take `CN(Cc1ccccc1)C(=O)CC[C@@H](C=O)NC(=O)[C@H](CC1CCCCC1)NC(=O)OCc1cccc(Cl)c1` [Compound A18, 3-Chlorobenzyl ((S)-1-(((S)-5-(benzyl (methyl)amino)-1,5-dioxopentan-2-yl)amino)-3-cyclohexyl-1-oxopropan-2-yl) carbamate]: the IC50 in assay [1] (Table C) is 2.7 µM; in assay [2] (Table C) it was 14.5 µM; at SARS2 protease, over 200 µM.

For the molecule `CCOCCOCCN(C)C(=O)CC[C@H](NC(=O)C(CC1CCCCC1)NC(=O)OCc1cccc(Cl)c1)C(O)P(=O)(OCC)OCC` (stereo in doubt) [Compound A11, 3-Chlorobenzyl ((13S,16S)-17-cyclohexyl-13-((diethoxyphosphoryl)(hydroxy)methyl)-9-methyl-10,15-dioxo-3,6-dioxa-9,14-diazaheptadecan-16-yl)carbamate], the IC50 in assay [1] (Table C) is 133 µM; in assay [2] (Table C), 114 µM; on SARS2 protease, over 200 µM.

For `CN(CCc1cccc(Cl)c1)C(=O)CC[C@@H](C=O)NC(=O)[C@H](CC1CCCCC1)NC(=O)OCc1cccc(Cl)c1` (stereo in doubt) [Compound A33, 3-Chlorobenzyl ((S)-1-(((S)-5-((3-chlorophenethyl)(methyl)amino)-1,5-dioxopentan-2-yl)amino)-3-cyclohexyl-1-oxopropan-2-yl)carbamate], the concentration for half-maximal inhibition (IC50) in assay [1] (Table C) was 117 µM; in assay [2] (Table C), over 200 µM; on SARS2 protease it was over 200 µM.

Turning to `CCNC(=O)NCCN(C)C(=O)CC[C@H](NC(=O)[C@H](CC1CCCCC1)NC(=O)OCc1cccc(Cl)c1)C(O)P(=O)(OCC)OCC` (stereo partly drawn) [Compound A16, 3-Chlorobenzyl ((12S,15S)-16-cyclohexyl-12-((diethoxyphosphoryl)(hydroxy)methyl)-8-methyl-4,9,14-trioxo-3,5,8,13-tetraazahexadecan-15-yl)carbamate], the concentration for half-maximal inhibition (IC50) in assay [1] (Table C) was 81.9 µM; in assay [2] (Table C) it was over 200 µM; on SARS2 protease it was over 200 µM.

`CCOC(=O)NCCN(C)C(=O)CC[C@@H](C=O)NC(=O)[C@H](CC1CCCCC1)NC(=O)OCc1cccc(Cl)c1` (stereo in doubt) [Compound A44, Ethyl ((5S,8S)-1-(3-chlorophenyl)-5-(cyclohexylmethyl)-8-formyl-12-methyl-3,6,11-trioxo-2-oxa-4,7,12-triazatetradecan-14-yl)carbamate]: the half-maximal inhibitory concentration (IC50) in assay [1] (Table C) was 10.7 µM; in assay [2] (Table C), 28.6 µM; at SARS2 protease, over 200 µM.

As to `O=C[C@H](CCC(=O)N1CCCC(c2ccccc2)C1)NC(=O)[C@H](CC1CCCCC1)NC(=O)OCc1cccc(Cl)c1` (stereo in doubt) [Compound A53, 3-Chlorobenzyl ((2S)-3-cyclohexyl-1-(((2S)-1,5-dioxo-5-(3-phenylpiperidin-1-yl)pentan-2-yl)amino)-1-oxopropan-2-yl)carbamate], the IC50 in assay [1] (Table C) came to 6.7 µM; in assay [2] (Table C), 82.5 µM; on SARS2 protease, 16.7 µM.

For `CN(CCc1cccc(Cl)c1)C(=O)CC[C@@H](CO)NC(=O)[C@H](CC1CCCCC1)NC(=O)OCc1cccc(Cl)c1` [Compound A24, 3-Chlorobenzyl ((S)-1-(((S)-5-((3-chlorophenethyl)(methyl)amino)-1-hydroxy-5-oxopentan-2-yl)amino)-3-cyclohexyl-1-oxopropan-2-yl)carbamate], the IC50 in assay [1] (Table C) is over 200 µM; in assay [2] (Table C), 123 µM; on SARS2 protease it was over 200 µM.

For `CN(C)C(=O)CC[C@@H](C=O)NC(=O)[C@H](CC1CCCCC1)NC(=O)OCc1cccc(Cl)c1` [Compound A6, 3-chlorobenzyl ((S)-3-cyclohexyl-1-(((S)-5-(dimethylamino)-1,5-dioxopentan-2-yl)amino)-1-oxopropan-2-yl)carbamate], the IC50 is 2 µM in assay [1] (Table C), 18.7 µM in assay [2] (Table C) and over 200 µM on SARS2 protease.

`CCCCCCCC1CC/C=C/CC(C(=O)NC)C[C@@H](C(=O)N(C)OC)NC(=O)C(CC(C)C)NC(=O)O1` (single isomer, unassigned) [Compound B37]: the IC50 (in assay [1] (Table D); in assay [2] (Table D); at SARS2 protease) was over 200 µM each time.

With `CN(CCc1ccc(Cl)cc1)C(=O)CC[C@@H](C=O)NC(=O)[C@H](CC1CCCCC1)NC(=O)OCc1cccc(Cl)c1` (stereo in doubt) [Compound A48, 3-Chlorobenzyl ((S)-1-(((S)-5-((4-chlorophenethyl)(methyl)amino)-1,5-dioxopentan-2-yl)amino)-3-cyclohexyl-1-oxopropan-2-yl)carbamate], the 50% inhibitory concentration (IC50) in assay [1] (Table C) turned out to be 8.7 µM; in assay [2] (Table C), 63 µM; at SARS2 protease it was 31 µM.

With `CCOP(=O)(OCC)C(O)[C@H](CCC(=O)N(C)Cc1ccccc1)NC(=O)[C@H](CC1CCCCC1)NC(=O)OCc1cccc(Cl)c1` (stereo partly drawn) [Compound A13, 3-Chlorobenzyl ((2S)-1-(((2S)-5-(benzyl (methyl)amino)-1-(diethoxyphosphoryl)-1-hydroxy-5-oxopentan-2-yl)amino)-3-cyclohexyl-1-oxopropan-2-yl) carbamate], the half-maximal inhibitory concentration (IC50) in assay [1] (Table C) was 166 µM; in assay [2] (Table C), over 200 µM; at SARS2 protease, over 200 µM.

Turning to `CCCCCCCCC(=O)N[C@@H](CC(C)C)C(=O)NC(C)(C=O)CCC(=O)N(C)C` (stereo partly drawn) [Compound A1, N-((2S)-1-((5-(dimethylamino)-2-methyl-1,5-dioxopentan-2-yl)amino)-4-methyl-1-oxopentan-2-yl)nonanamide] (Nonanoyl-Leu-[ξαMeE](NMe2)-aldehyde), the IC50 (in assay [1] (Table C); in assay [2] (Table C); on SARS2 protease) was over 200 µM throughout.

`CCOP(=O)(OCC)C(O)[C@H](CCC(=O)N(C)CCc1ccc(Cl)cc1)NC(=O)C(CC1CCCCC1)NC(=O)OCc1cccc(Cl)c1` (stereo in doubt) [Compound A40, 3-Chlorobenzyl ((2S)-1-(((2S)-5-((4-chlorophenethyl)(methyl)amino)-1-(diethoxyphosphoryl)-1-hydroxy-5-oxopentan-2-yl)amino)-3-cyclohexyl-1-oxopropan-2-yl)carbamate]: the IC50 is 117 µM in assay [1] (Table C), 199 µM in assay [2] (Table C) and over 200 µM at SARS2 protease.

On to `CON(C)C(=O)[C@H](CCC(=O)N(C)CCc1ccccc1Cl)NC(=O)[C@H](CC1CCCCC1)NC(=O)OCc1cccc(Cl)c1` (stereo in doubt) [Compound A39, 3-Chlorobenzyl ((S)-1-(((S)-5-((2-chlorophenethyl)(methyl)amino)-1-(methoxy(methyl)amino)-1,5-dioxopentan-2-yl)amino)-3-cyclohexyl-1-oxopropan-2-yl)carbamate], for which the IC50 amounted to 119 µM in assay [1] (Table C), 100 µM in assay [2] (Table C) and 5.3 µM on SARS2 protease.
